Laboratory results published in article PMC11312813, “An Optimized Peptide Antagonist of CXCR4 Limits Survival of BCR–ABL1-Transformed Cells in Philadelphia-Chromosome-Positive B-Cell Acute Lymphoblastic Leukemia” (International Journal of Molecular Sciences, 2024).
Structures can show the parent of a compound that is named as a salt.

How the values were obtained:
[1] = test system: BCR–ABL1-transformed mouse B cells; test: Flow cytometric viability analysis (viability dye); type: cell-based; set-up: Live gate (viability dye) / Dead gate (viability dye): unit not given here; conditions: for Cell viability of BCR–ABL1 cells: 1–72 h, live cell count normalized to DMSO; for Dead gate (viability dye) / Live gate (viability dye): JM#170 10 µM, representative histogram of n = 3
Experimental: (§1) Cells treated with either solvent control DMSO or different concentrations of inhibitors for different time points were collected and washed with ice-cold PBS. […] After washing, labeled cells were resuspended in 100 μL of PBS and acquired using LSR-Fortessa (BD Bioscience, Heidelberg, Germany). FACS data were analyzed with FlowJo software version 10.0.

[2] = test system: ERK1/2 phosphorylation downstream of CXCR4; test: Western blot, ERK1/2 T202/Y204 phosphorylation in BCR–ABL1 cells; type: cell-based; conditions: 10 µM, 100 ng/mL mouse CXCL12, 5 min; n = 3
Experimental: BCR–ABL1 cells were collected as 5 × 10^6 cells/500 μL complete media and treated either with DMSO or different inhibitors in the absence and presence of 100 ng/mL mouse CXCL12 for 5, 15, and 30 min at 37 °C. Cells were then immediately transferred onto ice to stop the reaction and washed with ice-cold PBS. Cell extract was prepared by resuspending the cell pellet in 100 μL of radio-immunoprecipitation assay (RIPA) buffer supplemented with 1X protease inhibitor cocktail (#78429, Thermo Fisher), 1 mM sodium orthovanadate (Sigma-Aldrich), and 10 mM beta-glycerophosphate (Sigma-Aldrich). For each treatment, 15 μL of cell extract was mixed with 5 μL of 4X Laemmli buffer (reducing), boiled at 95 °C for 10 min, and run on 10% SDS-PAGE. Gels were wet-transferred to PVDF membranes (Millipore, Burlington, MA, USA) and stained with 0.1% ponceau-S solution to check for efficient blotting. The membranes were blocked with 3% BSA solution and incubated with primary antibodies at 4 °C overnight. The next day, primary antibodies were washed, and membranes were probed with horseradish peroxidase (HRP)-conjugated secondary antibodies at RT for 2 h. After washing, the blots were developed using Immobilon ECL Ultra Western HRP Substrate (#WBULS0500, Millipore), and images were acquired with a Fusion SL gel imaging system (Vilber Lourmat, Eberhardzell, Germany). […]

JNK1/2 phosphorylation = test: Western blot, basal JNK1/2 phosphorylation in BCR–ABL1 cells; type: cell-based, mouse; conditions: 10 µM, no CXCL12, 5 min; n = 3
Experimental: BCR–ABL1 cells were collected as 5 × 10^6 cells/500 μL complete media and treated either with DMSO or different inhibitors in the absence and presence of 100 ng/mL mouse CXCL12 for 5, 15, and 30 min at 37 °C. Cells were then immediately transferred onto ice to stop the reaction and washed with ice-cold PBS. […] For each treatment, 15 μL of cell extract was mixed with 5 μL of 4X Laemmli buffer (reducing), boiled at 95 °C for 10 min, and run on 10% SDS-PAGE. Gels were wet-transferred to PVDF membranes (Millipore, Burlington, MA, USA) and stained with 0.1% ponceau-S solution to check for efficient blotting. The membranes were blocked with 3% BSA solution and incubated with primary antibodies at 4 °C overnight. The next day, primary antibodies were washed, and membranes were probed with horseradish peroxidase (HRP)-conjugated secondary antibodies at RT for 2 h. After washing, the blots were developed using Immobilon ECL Ultra Western HRP Substrate (#WBULS0500, Millipore), and images were acquired with a Fusion SL gel imaging system (Vilber Lourmat, Eberhardzell, Germany).

caspase 3/7 = test: Caspase-Glo 3/7 activation assay in BCR–ABL1 cells; type: cell-based, mouse; conditions: 10 µM, 24 and 48 h; n = 3
Experimental: BCR–ABL1 cells were plated at 0.5 × 10^5 cells/well of a 96-well plate in 100 μL of complete media and treated with DMSO or various inhibitors. At specific time points (24, 48 and 72 h), activation of caspases was measured with a Caspase-Glo® 3/7 Assay (#G8090) and Caspase-Glo® 8 Assay (#G8200, Promega, Madison, WI, USA) following the manufacturer’s instructions.

[3] = test system: pro/anti-apoptotic genes (Jun, Bax, Bim, Bcl2, Bcl-xl, FasL); test: Real-time gene expression analysis (Taqman) in BCR–ABL1 cells; type: cell-based, mouse; conditions: 10 µM, n = 3
Experimental: BCR–ABL1 cells were plated at 1 × 10^6 cells/well of a 12-well plate in 1 mL of complete media and treated with DMSO or various inhibitors. After specific time points (24 and 48 h), RNA was isolated from cells using a ReliaPrep Cell RNA miniprep kit (#Z6011, Promega). Fifty nanograms of total RNA was reverse-transcribed using a high-capacity RNA to cDNA kit (#4387406, Thermo Fisher), and gene expression was measured via Taqman assay using Taqman Gene expression master mix (#4369016, Thermo Fisher) following ghd manufacturer’s protocol. The following Taqman probes were used: Jun (Mm07296811_s1), Bax (Mm00432051_m1), Bim (Mm00437796_m1), Bcl2 (Mm00477631_m1), Bcl-xl (00437783_m1), FasL (Mm00438864_m1), and beta actin (04394036_g1).

CXCR4 [4] = test: CXCL12-driven calcium flux in SupB15 cells; type: cell-based; conditions: 1 µM, 10 min pre-treatment, 100 ng/mL human CXCL12; n = 3
Experimental: (§2) Ca^2+ signaling was analyzed as described previously. Briefly, SupB15 and 697 cells were collected at 1 × 10^6 cells/treatment and loaded with calcium-sensitive dye Indo-1 AM (#I1223, Invitrogen) and 0.5 mg/mL of pluronic F-127 (#P3000MP, Invitrogen) in their respective media supplemented with 1% FBS at 37 °C for 45 min. Cells were then washed and treated with the inhibitors for 10 min at 37 °C. Baseline signal for calcium was measured for 30 s via flow cytometry, followed by stimulation with 100 ng/mL human CXCL12. The area under the curve (AUC) of each calcium flux plot was determined using FlowJo. The AUC of the water control (solvent for CXCL12) was subtracted from each treatment to obtain the correct estimation of the calcium signal upon CXCL12 stimulation.

CXCR4 [5] = test: CXCL12-driven calcium flux in 697 cells; type: cell-based; conditions: 1 µM, 10 min pre-treatment, 100 ng/mL human CXCL12; n = 3
Experimental: as §2

SupB15 cells = test: Flow cytometric cell survival analysis, SupB15; type: cell-based, human; conditions: for SupB15 cell survival vs DMSO: 10 µM, 24–96 h, n = 3; for Dead gate (viability dye) / Live gate (viability dye): JM#170 10 µM, representative histogram of n = 3
Experimental: as §1

c1cc(CN2CCCNCCNCCCNCC2)ccc1CN1CCCNCCNCCCNCC1 [AMD3100, AMD3100 octahydrochloride hydrate, reference compound]
Cell viability of BCR–ABL1 cells ([1]; 10 µM, n = 3): did not induce any loss of cell viability | CXCL12-induced ERK1/2 T202/Y204 phosphorylation [2]: this elevation was blocked | Basal JNK phosphorylation vs DMSO (JNK1/2 phosphorylation): such upregulation was not observed | Caspase 3/7 activation vs DMSO (caspase 3/7): did not induce any caspase activation | Pro/anti-apoptotic gene expression ([3]; 24 and 48 h): did not upregulate any gene expression | CXCL12-induced calcium flux, SupB15 (CXCR4 [4]): completely blocked the calcium flux | CXCL12-induced calcium flux, 697 (CXCR4 [5]): completely blocked the calcium flux | SupB15 cell survival vs DMSO (SupB15 cells): no effect on SupB15 cell survival

ILRWSRK * (Pal)-NH2 [JM#170, lipid-conjugated truncated version of EPI-X4, CXCR4 antagonist]
Cell viability of BCR–ABL1 cells ([1]; 10 µM, n = 3): strong and rapid cell death | Cells dying ([1]; 10 µM, within 1 h of treatment, n = 3): ~ 70% | Dead gate (viability dye) ([1]; 1 h): 64.5 | Live gate (viability dye) ([1]; 1 h): 35.5 | Dead gate (viability dye) ([1]; 24 h): 85.0 | Live gate (viability dye) ([1]; 24 h): 15.0 | Dead gate (viability dye) ([1]; 48 h): 76.4 | Live gate (viability dye) ([1]; 48 h): 23.6 | Dead gate (viability dye) ([1]; 72 h): 63.6 | Live gate (viability dye) ([1]; 72 h): 36.4 | CXCL12-induced ERK1/2 T202/Y204 phosphorylation [2]: this elevation was blocked | Basal JNK phosphorylation vs DMSO (JNK1/2 phosphorylation): transiently upregulated basal JNK phosphorylation | Caspase 3/7 activation vs DMSO (caspase 3/7): significant increase in caspase 3/7 activation | Bax gene expression ([3]; 24 h): mildly upregulated | Bcl2 gene expression ([3]; 24 h): significant increase | Bcl-xl gene expression ([3]; 24 h): not altered at all | Bim gene expression ([3]; 24 h): significantly elevated | Jun gene expression ([3]; 24 h): significantly elevated | Bax, Bim and Bcl2 gene expression ([3]; 48 h): still significantly elevated levels | FasL gene expression [3]: inactivation of FasL | CXCL12-induced calcium flux, SupB15 (CXCR4 [4]): completely blocked the calcium flux | CXCL12-induced calcium flux, 697 (CXCR4 [5]): completely blocked the calcium flux | SupB15 cell survival vs DMSO (SupB15 cells): significantly reduced SupB15 cell survival | Dead gate (viability dye) (SupB15 cells; 24 h): 19.0 | Live gate (viability dye) (SupB15 cells; 24 h): 81.0 | Dead gate (viability dye) (SupB15 cells; 72 h): 33.3 | Live gate (viability dye) (SupB15 cells; 72 h): 66.7 | Dead gate (viability dye) (SupB15 cells; 96 h): 41.7 | Live gate (viability dye) (SupB15 cells; 96 h): 58.3
